The text below walks through data of US20170350876A1, “BIOSENSOR FOR SINGLE CELL ANALYSIS” (priority 2016, published 2017).

The structures appear in SMILES notation.

The test system of one experiment is MCF-7 single cells. Kind of experiment: Single cell impedance monitoring on the biosensor (EDR single cell analysis). The format is cell-based, human. To be noted: for mean impedance changes of the single cells over time, in words: 2.1 and 10.5 nM MBZ, 0.1 and 1 nM PTX, nano-roughened biosensor, about 4 kHz, FIG. 12A. Here is the method:
MCF-7 cell lines which were acquired to be used in this example. The cell lines have been separated from grad I human breast tumors. The cell lines were maintained at 37° C. in an incubator (about 5% CO2, about 95% clean air) and in RPMI-1640 medium supplemented with about 5% fetal bovine serum and about 1% penicillin/streptomycin. The fresh medium was replaced every other day. In order to detach cell from the substrate and become suspended in cell solution, cells was trypsynized. As performing cell culturing process at room temperature of about 20° C. -22° C., trypsinization should be done in less than about 6 minutes to minimize the influence of trypsinization. The cell solution was dropped onto an exemplary biosensor, which was fabricated according to EXAMPLE 1, and then the biosensor was maintained in an incubator for about 4 hours to reach cells attachment on the biosensor surface and trapping single cells within microwells of the biosensor.
Exemplary biosensors with cell solutions dropped onto them (as described herein in EXAMPLE 2) were maintained in an incubator for about 4 hours to reach cells attachment on biosensors surface. MBZ and PTX antitubulin drugs were added into the microwells containing single cells in low concentrations (about 2.1 nM for MBZ and about 0.1 nM for PTX) and high concentrations (about 10.5 nM for MBZ and about 1 nM for PTX) concentrations. The signals were recorded 2 hours, 5 hours, 8 hours, 20 hours, 32 hours, and 44 hours after drug addition that means 6 hours, 9 hours, 12 hours, 24 hours, […]. Electrical signals Measurements were collected in frequencies ranged from about 1 KHz to about 60 KHz by impedance measurement system (electrical signal extraction board) at about every 2 hours. A small “ac” sinusoidal signal was applied to the sensors. For different frequencies of the “ac” signal, the sensitivity of the sensor would vary which is called as the frequency characteristics. The bias voltage of the system was about 40 mV which wasn't destructive for cellular metabolism and a series resistance was used as current limiter element. For each cell trapped in each microwell of the biosensors, four electrodes may be used for signal extraction in two states (with up-down or right-left neighbor electrodes). The final result may be the average of the several signals extracted from the different sensors on a chip (several microwells on a biosensor) to consider cellular heterogeneity and different positioning of the cells relative to the electrodes and other parameters.
FIGS. 10A-10F show impedance diagrams for a MCF-7 single cell seeded and trapped in a microwell between electrodes about 4 hours after dropping the solution containing cells, which was assumed as an initial time (T=0) for all measurement experiments. After the attachment of the cell on the region between recording or sensing electrodes (after about 4 hours), observable increment in impedance was recorded with respect to media solution covered state (curve 1001 Vs. curve 1002 in FIG. 10A). T parameter was defined as a time merit started after dropping of the cells (t=4 hours was assumed equal to T=0). Delta Z (ΔZ) may include the difference between impedance at about 4 hours after cell seeding (equal to T=0) and the 4+x^th hours (x may be equal to 2, 5, 8, etc.), divided by the impedance at T=0. Average impedance of all frequencies were used for comparison. For better comprehension of impedimetric regime, the impedance changes of the CTRL cell were plotted in subsequently next time periods (about 6th, 9th, 12th and 24th hours) with respect to the impedance of the sensor in 4th hours after dropping the cells solution that are shown by curves 1003 (at T=2 or t=6 hours), 1004 (at T=5 or t=9 hours), 1005 (at T=8 or t=12 hours), and 1006 (at T=20 or t=24 hours) in FIG. 10B. […]

Experiment [1] has as its system MCF-7 cells, cytoskeletal structure (microtubules). Kind of experiment: Confocal imaging of drug treated single cells (anti-α-tubulin staining). To be noted: 10.5 nM MBZ or 1 nM PTX, about 20 hours after drug treatment, compared with CTRL.

As for `COC(=O)Nc1nc2ccc(C(=O)c3ccccc3)cc2[nH]1` [MBZ, methyl5-benzoyl-2-benzimidazole-carbamate], the impedance reduction result with MCF-7 single cells (2.1 nM MBZ, T=2 hours, relative to T=0, FIG. 10C) is recorded as “about 5%”; in the experiment with MCF-7 single cells (2.1 nM MBZ, T=6 hours (so in the source), relative to T=0, FIG. 10C), around 10%; in the experiment with MCF-7 single cells (2.1 nM MBZ, T=8 hours, relative to T=0, FIG. 10C), “about 15%”; in the experiment on MCF-7 single cells (2.1 nM MBZ, T=20 hours, relative to T=0, FIG. 10C), around 30%; in the experiment on MCF-7 single cells (10.5 nM MBZ, first time interval (T=2 hours), FIG. 10D), “about 15%”; with MCF-7 single cells (10.5 nM MBZ, fourth time interval (T=20 hours), FIG. 10D), around 45%. Also, the impedance reduction was around 25% in the experiment with MCF-7 single cells (10.5 nM MBZ, second time interval (T=6 hours as printed), FIG. 10D) and around 35% in the experiment on MCF-7 single cells (10.5 nM MBZ, third time interval (T=8 hours), FIG. 10D). In addition, the “mean impedance changes of the single cells over time, in words” value in the experiment on MCF-7 single cells was “continues reduction in the impedance which exhibited a linier correlation with doses of the drug”. Also, the “effect on cytoskeletal structure and mitosis (confocal images), in words” value in experiment [1] is “No entrance to even primary cycles of mitosis, degraded distribution of cytoskeleton and monoastered microtubules”.

With `CC(=O)O[C@H]1C(=O)[C@@]2(C)[C@H]([C@H](OC(=O)c3ccccc3)[C@]3(O)C[C@H](OC(=O)[C@H](O)[C@@H](NC(=O)c4ccccc4)c4ccccc4)C(C)=C1C3(C)C)[C@]1(OC(C)=O)CO[C@@H]1C[C@@H]2O` [PTX, Paclitaxel], the impedance increment entry was “about 10%” in the experiment with MCF-7 single cells (0.1 nM PTX, T=about 2 hours, relative to T=0, FIG. 10E); around 30% with MCF-7 single cells (0.1 nM PTX, T=about 5 hours, relative to T=0, FIG. 10E); around 35% with MCF-7 single cells (0.1 nM PTX, T=about 8 hours, relative to T=0, FIG. 10E); around 45% with MCF-7 single cells (0.1 nM PTX, T=about 20 hours, relative to T=0, FIG. 10E); “about 5%” with MCF-7 single cells (1 nM PTX (high dose), T=2 hours, FIG. 10F); around 15% with MCF-7 single cells (1 nM PTX (high dose), T=5 hours, FIG. 10F). The impedance increment was around 20% in the experiment with MCF-7 single cells (1 nM PTX (high dose), T=8 hours, FIG. 10F) and around 25% in the experiment on MCF-7 single cells (1 nM PTX (high dose), T=20 hours, FIG. 10F). Further, the “mean impedance changes of the single cells over time, in words” value with MCF-7 single cells is “moderate impedance increment with dose dependent reductive regime”. Also, the “effect on cytoskeletal structure and mitosis (confocal images), in words” value in experiment [1] was “aggregated MTs as polymerizing effect of Taxol on cytoskeletal structure which induced mitotic arrest in the cell and deformed the nucleus during the mitosis”.
